From patent publication US9770452B2, “Quinoxaline derivatives as GPR6 modulators” (Takeda Pharmaceutical Company Limited, priority 2012, dated 2017)

Assays:
[1] = tested on: haloperidol-induced catalepsy; assay: Haloperidol-Induced Catalepsy, in vivo rodent Parkinson's disease model (mice); settings: mouse; for % reversal 30 min: 30 min after dosing with haloperidol; for % reversal 120 min: 120 min after dosing with haloperidol
Source text: (§1) Haloperidol-Induced Catalepsy—In Vivo Rodent Parkinson's Disease Model
The motor symptoms of Parkinson's disease include akinesia, bradykinesia, rigidity, tremor and postural abnormalities and are associated with the loss of nigral dopaminergic cells and a decline in striatal dopamine levels. Administration of haloperidol to rodents leads to a transient parkinsonian-like state that is reversed by the administration of L-Dopa (Duty, S.; Jenner, P. Br. J. Pharmacol. (2011), 164, 1357-1391) and other drugs that have been clinically validated for the treatment of Parkinson's disease. Haloperidol antagonizes dopamine D2 and, to a lesser extent, D1 receptors in medium spiny neurons that comprise the indirect and direct pathways of the motor circuit respectively. The resultant block of striatal dopamine transmission results in abnormal downstream firing within the basal ganglia circuits that is manifest as symptoms of muscle rigidity and catalepsy. Catalepsy has been postulated to reflect the clinical features of Parkinson's disease, whereby patients experience an inability of to initiate movements.
Male Sprague-Dawley rats (Charles River, Calco, Italy) weighing 175-200 g are used. Alternatively, male C57Bl6 mice weighing 25-35 g were used. The cataleptic state was induced by the subcutaneous administration of the dopamine receptor antagonist haloperidol (0.3 mg/kg, sc), 90 min before testing the animals on the vertical grid test. For this test, the rats or mice were placed on the wire mesh cover of a 25 cm×43 cm plexiglass cage placed at an angle of about 70 degrees with the bench table. The subject was placed on the grid with all four legs abducted and extended (“frog posture”). The use of such an unnatural posture is essential for the specificity of this test for catalepsy. The time span from placement of the paws until the first complete removal of one paw (descent latency) was measured maximally for 120 sec for rats. For mice, the front paws of a mouse was placed on a horizontal metal bar raised 2″ above a Plexiglas platform and time was recorded for up to 30 seconds per trial. The test ended when the animal's front paws returned to the platform or after 30 seconds. The test was repeated three times and the average of the three trials was reported as the intensity index of catalepsy.
Catalepsy was measured 30 min, 120 min, and/or 240 min after dosing the subjects a 0.3 mg/kg i.p. dose of haloperidol along with the GPR6 modulator test compound. Test compound plasma and brain levels were determined by collected tissue samples at the end of the experiment, which was either at the 120 or 240 min time point. A representative number of compounds of the invention were administered in a dose range from 0.1 to 100 mg/kg i.p, sc or po in conjunction with haloperidol. The A2a antagonist KW6002 (istradefylline) was dosed at 0.6 mg/kg i.p. as a positive control. The compounds of the invention produced reversal of haloperidol-induced catalepsy. The results of a representative no. of compounds of this invention in this assay are disclosed in the table below.

[2] = target: T1, GPR6 receptor (Homo sapiens, UniProt P46095); assay: Inhibition of cAMP Activity of GPR6 In Vitro Assay (CHO-K1 cells, HTRF cAMP); format: cell-based; settings: compounds of Compound Table 1; inhibition of constitutive cAMP activity of GPR6 expressed in CHO-K1 cells; approximate IC50; read-out: IC50
T1 construct: expressed in transfected cells
Method in brief: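 CHO-K1 cells with doxycycline-induced (1 μg/ml, 20 h) GPR6 treated with compounds 45 min at 37 °C in Ringer's buffer (pH 7.4) with 0.5% fatty acid free BSA. Constitutive cAMP measured by Lance HTRF Ultra cAMP; IC50 from four-parameter logistic fit.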

[3] = tested on: haloperidol-induced catalepsy; assay: Haloperidol-Induced Catalepsy, in vivo rodent Parkinson's disease model (rats); settings: rat, 10 mpk sc
Source text: as §1
The motor symptoms of Parkinson's disease include akinesia, bradykinesia, rigidity, tremor and postural abnormalities and are associated with the loss of nigral dopaminergic cells and a decline in striatal dopamine levels. Administration of haloperidol to rodents leads to a transient parkinsonian-like state that is reversed by the administration of L-Dopa (Duty, S.; Jenner, P. Br. J. Pharmacol. (2011), 164, 1357-1391) and other drugs that have been clinically validated for the treatment of Parkinson's disease. […]
Male Sprague-Dawley rats (Charles River, Calco, Italy) weighing 175-200 g are used. […] The time span from placement of the paws until the first complete removal of one paw (descent latency) was measured maximally for 120 sec for rats. For mice, the front paws of a mouse was placed on a horizontal metal bar raised 2″ above a Plexiglas platform and time was recorded for up to 30 seconds per trial. […]
Catalepsy was measured 30 min, 120 min, and/or 240 min after dosing the subjects a 0.3 mg/kg i.p. dose of haloperidol along with the GPR6 modulator test compound. Test compound plasma and brain levels were determined by collected tissue samples at the end of the experiment, which was either at the 120 or 240 min time point. […]

T1 sequence (P46095 whole entry): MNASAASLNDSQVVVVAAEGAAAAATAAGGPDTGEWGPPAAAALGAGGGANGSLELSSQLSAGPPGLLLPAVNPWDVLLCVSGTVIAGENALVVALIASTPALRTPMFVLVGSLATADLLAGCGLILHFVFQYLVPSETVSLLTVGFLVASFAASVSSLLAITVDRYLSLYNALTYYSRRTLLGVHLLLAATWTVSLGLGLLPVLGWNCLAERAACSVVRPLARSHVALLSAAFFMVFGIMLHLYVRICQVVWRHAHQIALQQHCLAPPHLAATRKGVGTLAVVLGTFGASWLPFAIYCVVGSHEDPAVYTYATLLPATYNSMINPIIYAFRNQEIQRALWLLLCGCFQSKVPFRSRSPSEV

Row | Compound | IC50 [2] | % reversal 30 min ([1]; 10 mpk ip) | % reversal 120 min ([1]; 10 mpk ip) | % reversal 30 min ([1]; 30 mpk ip) | % reversal 120 min ([1]; 30 mpk ip) | % reversal 30 min ([3]; 30 min after dosing with haloperidol) | % reversal 120 min ([3]; 120 min after dosing with haloperidol)
1 | 3-(4-(2,4-difluorobenzyl)piperidin-1-yl)-2-(pyridin-3-ylamino)quinoxaline-6-carbonitrile, 2,2,2-trifluoroacetic acid salt [Cpd 415] | 64 nM |  |  |  |  | 36.9% | 25.1%
2 | Clc1cccc(Cl)c1CN1CCN(c2nc3ccccc3nc2NC2CC2)CC1.O=C(O)C(F)(F)F [Cpd 50, N-cyclopropyl-3-(4-(2,6-dichlorobenzyl)piperazin-1-yl)quinoxalin-2-amine, 2,2,2-trifluoroacetic acid salt] |  |  |  | 40.4% | 29.6% |  | 
3 | Clc1cccc(CN2CCN(c3nc4ccccc4nc3Nc3cccnc3)CC2)c1.O=C(O)C(F)(F)F [Cpd 53, 3-(4-(3-chlorobenzyl)piperazin-1-yl)-N-(pyridin-3-yl)quinoxalin-2-amine, 2,2,2-trifluoroacetic acid salt] | 1200 nM |  |  | 13.6% | 15.4% |  | 

More lines, main results first:

Row | IC50 [2] | Compound | % reversal 30 min ([1]; 10 mpk ip) | % reversal 120 min ([1]; 10 mpk ip) | % reversal 30 min ([1]; 30 mpk ip) | % reversal 120 min ([1]; 30 mpk ip) | % reversal 30 min ([3]; 30 min after dosing with haloperidol) | % reversal 120 min ([3]; 120 min after dosing with haloperidol)
4 | 250 nM | N#Cc1ccc2nc(NC3CC3)c(N3CCN(Cc4cc(Cl)ccc4Cl)CC3)nc2c1 [Cpd 59, 2-(cyclopropylamino)-3-(4-(2,5-dichlorobenzyl)piperazin-1-yl) quinoxaline-6-carbonitrile] | 42% | 18.8% | 27.4% | 15.7% |  | 
5 | 2160 nM | Clc1ccc(Cl)c(CN2CCN(c3nc4ccccc4nc3NC3CC3)CC2)c1.O=C(O)C(F)(F)F [Cpd 33, N-cyclopropyl-3-(4-(2,5-dichlorobenzyl)piperazin-1-yl)quinoxalin-2-amine, 2,2,2-trifluoroacetic acid salt] |  |  | 48.1% | 41.4% |  | 
